Test [1] has as its target T1, S. aureus coagulase (Coa); 6×His-Coa; WT-Coa (Staphylococcus aureus, UniProt Q2G1D3).
T1 construct: gene SAOUHSC_00192; 6×His-tagged Coa from pET15b-Coa, expressed in E. coli BL21(DE3), Ni-NTA purified
The experiment in a line: plate coagulation assay (agarose, fibrinogen, rabbit plasma). It counts as biochemical. Particulars: 2.5 mg/ml Coa; 37 °C overnight; rabbit plasma as prothrombin source.

Test [2] concerns the target T1, S. aureus coagulase (Coa); 6×His-Coa; WT-Coa. The experiment in a line: intrinsic fluorescence quenching. It counts as binding.
For test [3], the target named is T2, S. aureus coagulase (Coa); 6×His-Coa; WT-Coa (Staphylococcus aureus, UniProt Q2G1D3, P268A).
T2 construct: gene SAOUHSC_00192
The experiment in a line: biochemical. The source says:
(§1) intrinsic fluorescence quenching on S. aureus coagulase (Coa); 6×His-Coa; WT-Coa

Test [4] concerns the target T3, S. aureus coagulase (Coa); 6×His-Coa; WT-Coa (Staphylococcus aureus, UniProt Q2G1D3, Y188A).
T3 construct: gene SAOUHSC_00192
Kind of test: biochemical.
Excerpt: as §1

Test [5] has as its target T4, S. aureus coagulase (Coa); 6×His-Coa; WT-Coa (Staphylococcus aureus, UniProt Q2G1D3, V191A).
T4 construct: gene SAOUHSC_00192
Kind of test: biochemical.
Excerpt: as §1

Test [6] has as its target T5, S. aureus coagulase (Coa); 6×His-Coa; WT-Coa (Staphylococcus aureus, UniProt Q2G1D3, N267A).
T5 construct: gene SAOUHSC_00192
Kind of test: biochemical.
Excerpt: as §1

In general, Kd refers to a measure of binding affinity in units of concentration. The low end stands for a tighter complex, the high end for a looser complex. Consider `O=c1cc(-c2ccc(O)cc2)oc2cc(O)c([C@@H]3O[C@H](CO)[C@@H](O)[C@H](O)[C@H]3O)c(O)c12` [isovitexin, apigenin-6-C-β-glucopyranoside], for which, in test [1], the “diameter of coagulation zone, % of control, at 128 μg/ml” value is on record as 47.50%. Besides, the Kd in test [2] was 10 µM; in test [3] it was 19.4 µM; in test [4], 11.4 µM; in test [5], 23 µM; in test [6], 12.4 µM.

Values taken from PMC9706020, “Isovitexin Is a Direct Inhibitor of Staphylococcus aureus Coagulase” (Journal of Microbiology and Biotechnology, 2021).
